Assay results from article doi:10.64898/2025.12.27.696692v1, “A coelenterazine-dependent luciferase from the deep-sea coral Anthoptilum murrayi Kölliker, 1880 (Cnidaria: Octocorallia: Pennatulacea)” (biorxiv, 2025).

Test system: T1, AnmLuc (recombinant Anthoptilum murrayi luciferase)
T1 construct: codon-optimised, pET-28a(+), N-terminal His6 (no cleavage told); E. coli ArcticExpress (DE3), Ni-NTA
Assay: luminometry, Michaelis-Menten nonlinear fit
Type: biochemical
Details: 50 mM sodium phosphate pH 7.5, 25 °C; coelenterazine 0.04–50 µM

- Km: 3.39 µM
Compound: Oc1ccc(Cc2nc3c(Cc4ccccc4)nc(-c4ccc(O)cc4)cn3c2O)cc1 [coelenterazine]
